Data as given in ChEMBL document CHEMBL1132501, “Synthesis and anti-Helicobacter pylori activity of FR182024, a new cephem derivative” (1999).
In brackets after ≈: the same amount, converted by molar mass.

Experiments:
Assay type in all cases: functional
Helicobacter pylori [1] = test: The compound was evaluated in vitro for the minimum inhibitory concentration against Helicobacter pylori (13001).
Mus musculus [2] = test: The compound was evaluated in vivo for the therapeutic efficacy at 0.1 mg/kg in mouse infection model; 5/8
Mus musculus [3] = test: The compound was evaluated in vivo for the therapeutic efficacy at 0.32 mg/kg in mouse infection model; 8/8
Helicobacter pylori [4] = test: The compound was evaluated in vitro for the minimum inhibitory concentration against Helicobacter pylori (FP1757).
Helicobacter pylori [5] = test: The compound was evaluated in vitro for the minimum inhibitory concentration against Helicobacter pylori (16021).
Helicobacter pylori [6] = test: The compound was evaluated in vitro for the minimum inhibitory concentration against Helicobacter pylori (9005).
Mus musculus [7] = test: The compound was evaluated in vivo for the therapeutic efficacy at 1.0 mg/kg in mouse infection model; 0/8
Mus musculus [8] = test: The compound was evaluated in vivo for the therapeutic efficacy at 3.2 mg/kg in mouse infection model; 0/8
Mus musculus [9] = test: The compound was evaluated in vivo for the therapeutic efficacy at 0.32 mg/kg in mouse infection model; 0/8
Mus musculus [10] = test: The compound was evaluated in vivo for the therapeutic efficacy at 1.0 mg/kg in mouse infection model; 3/8
Mus musculus [11] = test: The compound was evaluated in vivo for the therapeutic efficacy at 0.32 mg/kg in mouse infection model; 1/8
Mus musculus [12] = test: The compound was evaluated in vivo for the therapeutic efficacy at 3.2 mg/kg in mouse infection model; 7/8
Mus musculus [13] = test: The compound was evaluated in vivo for the therapeutic efficacy at 0.1 mg/kg in mouse infection model; 0/8

Compound	MIC (Helicobacter pylori [1])	Therapeutic efficacy (Mus musculus [2])	Therapeutic efficacy (Mus musculus [3])	MIC (Helicobacter pylori [4])	MIC (Helicobacter pylori [5])	MIC (Helicobacter pylori [6])	Therapeutic efficacy (Mus musculus [7])	Therapeutic efficacy (Mus musculus [8])	Therapeutic efficacy (Mus musculus [9])	Therapeutic efficacy (Mus musculus [10])	Therapeutic efficacy (Mus musculus [11])	Therapeutic efficacy (Mus musculus [12])	Therapeutic efficacy (Mus musculus [13])
Cc1nnc(SC2=C(C(=O)O)N3C(=O)[C@@H](NC(=O)Cc4ccccc4)[C@H]3SC2)s1	0.00078 µg/mL (≈ 0.00174 µM)	5	8	0.00156 µg/mL (≈ 0.00348 µM)	0.0016 µg/mL (≈ 0.00357 µM)	0.00625 µg/mL (≈ 0.0139 µM)							
CC[C@H]1OC(=O)[C@H](C)[C@@H](O[C@H]2C[C@@](C)(OC)[C@@H](O)[C@H](C)O2)[C@H](C)[C@@H](O[C@@H]2O[C@H](C)C[C@H](N(C)C)[C@H]2O)[C@](C)(OC)C[C@@H](C)C(=O)[C@H](C)[C@@H](O)[C@]1(C)O [CLARITHROMYCIN]	0.05 µg/mL (≈ 0.0668 µM)			0.1 µg/mL (≈ 0.134 µM)	50 µg/mL (≈ 66.8 µM)	0.2 µg/mL (≈ 0.267 µM)	0	0	0				
CC1(C)S[C@@H]2[C@H](NC(=O)[C@H](N)c3ccc(O)cc3)C(=O)N2C1C(=O)O (single isomer, unassigned) [AMOXICILLIN]	0.025 µg/mL (≈ 0.0684 µM)			0.0125 µg/mL (≈ 0.0342 µM)	0.025 µg/mL (≈ 0.0684 µM)	0.05 µg/mL (≈ 0.137 µM)				3	1	7	0
